In US20100267561A1, “HERBICIDAL PYRIDAZINONE DERIVATIVES” (priority 2007, published 2010):
Where two headings read alike, the source gives them in different places.

Tests used:
Assay type in all cases: in vivo
[1] = test system: johnsongrass (Sorghum halepense); test: Test B pre-/postemergence plant response; conditions: Sorghum halepense, pre-emergence, Preemergence, read-out: Plant response rating, Johnsongrass
Text: (§1) Seeds of plant species selected from blackgrass (Alopecurus myosuroides), downy bromegrass (Bromus tectorum), green foxtail (Setaria viridis), Italian ryegrass (Lolium multiflorum), wheat (Triticum aestivum), wild oat (Avena fatua), catchweed bedstraw (Galium aparine), bermudagrass (Cynodon dactylon), surinam grass (Brachiaria decumbens), cocklebur (Xanthium strumarium), corn (Zea mays), large crabgrass (Digitaria sanguinalis), woolly cupgrass (Eriochloa villosa), giant foxtail (Setaria faberii), goosegrass (Eleusine indica), johnsongrass (Sorghum halepense), kochia (Kochia scoparia), lambsquarters (Chenopodium album), morningglory (Ipomoea coccinea), eastern black (E.B.) nightshade (Solanum ptycanthum), yellow nutsedge (Cyperus esculentus), pigweed (Amaranthus retroflexus), common ragweed (Ambrosia elation), Russian thistle (Salsola iberica), soybean (Glycine max), common (oilseed) sunflower (Helianthus annuus), and velvetleaf (Abutilon theophrasti) were planted and treated preemergence with test chemicals formulated in a non-phytotoxic solvent mixture which included a surfactant.
(§2) At the same time, plants selected from these crop and weed species and also winter barley (Hordeum vulgare), canarygrass (Phalaris minor), chickweed (Stellaria media) and windgrass (Apera spica-venti) were treated with postemergence applications of some of the test chemicals formulated in the same manner. Plants ranged in height from 2 to 18 cm (1- to 4-leaf stage) for postemergence treatments.
(§3) Plant species in the flooded paddy test consisted of rice (Oryza sativa), umbrella sedge (Cyperus difformis), ducksalad (Heteranthera limosa) and barnyardgrass (Echinochloa crus-galli) grown to the 2-leaf stage for testing. At time of treatment, test pots were flooded to 3 cm above the soil surface, treated by application of test compounds directly to the paddy water, and then maintained at that water depth for the duration of the test. Treated plants and controls were maintained in a greenhouse for 13 to 15 days, after which time all species were compared to controls and visually evaluated. Plant response ratings, summarized in Table B, are based on a scale of 0 to 100 where 0 is no effect and 100 is complete control. A dash (-) response means no test result.

[2] = test system: large crabgrass (Digitaria sanguinalis); test: Test B pre-/postemergence plant response; conditions: for pest or weed control at 31 g/ha: 31 g ai/ha; for pest or weed control at 62 g/ha: 62 g ai/ha, 100 complete control
Text: as §1, §2, §3

[3] = test system: pigweed (Amaranthus retroflexus); test: Test B pre-/postemergence plant response; conditions: for pest or weed control at 31 g/ha / pest or weed control at 62 g/ha: Amaranthus retroflexus, read-out: Plant response rating, Pigweed; for pest or weed control at 31 g/ha: 31 g ai/ha; for pest or weed control at 62 g/ha: 62 g ai/ha, 100 complete control
Text: as §1, §2, §3

[4] = test system: velvetleaf (Abutilon theophrasti); test: Test B pre-/postemergence plant response; conditions: for pest or weed control at 31 g/ha / pest or weed control at 62 g/ha: Abutilon theophrasti, read-out: Plant response rating, Velvetleaf; for pest or weed control at 31 g/ha: 31 g ai/ha; for pest or weed control at 62 g/ha: 62 g ai/ha, 100 complete control
Text: as §1, §2, §3

wild oat (Avena fatua) = test: Test B pre-/postemergence plant response; conditions: for pest or weed control at 31 g/ha / pest or weed control at 62 g/ha: Avena fatua, read-out: Plant response rating, Oat, Wild; for pest or weed control at 31 g/ha: 31 g ai/ha; for pest or weed control at 62 g/ha: 62 g ai/ha, 100 complete control
Text: as §1, §2, §3

[5] = test system: woolly cupgrass (Eriochloa villosa); test: Test B pre-/postemergence plant response; conditions: for pest or weed control at 31 g/ha: 31 g ai/ha; for pest or weed control at 62 g/ha: 62 g ai/ha, 100 complete control
Text: as §1, §2, §3

[6] = test system: ducksalad (Heteranthera limosa); test: Test B flooded paddy test plant response; conditions: Heteranthera limosa, Flood (flooded paddy test), scale 0 to 100, 0 no effect, 100 complete control, read-out: Plant response rating, Ducksalad
Outline: (§4)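 Compounds were added directly to paddy water over 2-leaf-stage plants in pots flooded 3 cm above soil, water depth maintained. Visual injury scored against controls after 13 to 15 days in greenhouse, 0 (none) to 100 (complete control); dash indicates no result.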

rice (Oryza sativa) = test: Test B flooded paddy test plant response; conditions: Oryza sativa, Flood (flooded paddy test), scale 0 to 100, 0 no effect, 100 complete control, read-out: Plant response rating, Rice
Outline: as §4

[7] = 8 g ai/ha, postemergence, 0-100 scale
[8] = Preemergence, 8 g ai/ha, scale 0 to 100
[9] = Preemergence, 16 g ai/ha, scale 0 to 100
[10] = 16 g ai/ha, postemergence, 0-100 scale
[11] = post-emergence, Postemergence, scale 0 to 100
[12] = post-emergence, Postemergence, scale 0 to 100, 0 no effect
[13] = pre-emergence, Preemergence, scale 0 to 100 (0 no effect, 100 complete control)
[14] = pre-emergence, Preemergence, 0 to 100 scale, 0 no effect

`Cc1nn(C)c(=O)c(-n2nc(-c3ccc(C(F)(F)F)cc3)cc2C)c1O` [Compound 75, 5-hydroxy-2,6-dimethyl-4-[5-methyl-3-[4-(trifluoromethyl)phenyl]-1H-pyrazol-1-yl]-3(2H)-pyridazinone] was tested, and the pest or weed control at 31 g/ha ([1]; 31 g ai/ha, scale 0 to 100 (0 no effect, 100 complete control)) was 85%, the pest or weed control at 62 g/ha ([1]; 62 g ai/ha, 0 to 100 scale, 0 no effect, 100 complete control) was 95% and the “Crabgrass, Large plant response rating” value [2, 7] was 0. It also gave a pest or weed control at 16 g/ha ([2]; Digitaria sanguinalis, post-emergence, Postemergence, 16 g ai/ha, scale 0 to 100, read-out: Plant response rating, Crabgrass, Large) of 0%, a pest or weed control at 31 g/ha ([2]; Digitaria sanguinalis, post-emergence, Postemergence, scale 0 to 100, read-out: Plant response rating, Crabgrass, Large) of 30% and a pest or weed control at 62 g/ha ([2]; Digitaria sanguinalis, post-emergence, Postemergence, scale 0 to 100, 0 no effect, read-out: Plant response rating, Crabgrass, Large) of 60%. The pest or weed control at 31 g/ha ([2]; Digitaria sanguinalis, pre-emergence, Preemergence, scale 0 to 100 (0 no effect, 100 complete control), read-out: Plant response rating, Crabgrass, Large) was 25%, the pest or weed control at 62 g/ha ([2]; Digitaria sanguinalis, pre-emergence, Preemergence, 0 to 100 scale, 0 no effect, read-out: Plant response rating, Crabgrass, Large) was 55% and the “Crabgrass, Large plant response rating” value [2, 8] was 0. The “Crabgrass, Large plant response rating” value [2, 9] was 0, the “Pigweed plant response rating” value [3, 7] was 0 and the “Pigweed plant response rating” value [3, 10] was 0. For the same molecule, the pest or weed control at 31 g/ha [3, 11] was 0%, the pest or weed control at 62 g/ha [3, 12] was 0% and the pest or weed control at 31 g/ha [3, 13] was 0%. For the same molecule, the pest or weed control at 62 g/ha [3, 14] was 0%, the “Pigweed plant response rating” value [3, 8] was 0 and the “Pigweed plant response rating” value [3, 9] was 0. The “Velvetleaf plant response rating” value [4, 7] was 0, the “Velvetleaf plant response rating” value [4, 10] was 0 and the pest or weed control at 31 g/ha [4, 11] was 0%. The pest or weed control at 62 g/ha [4, 12] was 0%, the pest or weed control at 31 g/ha [4, 13] was 0% and the pest or weed control at 62 g/ha [4, 14] was 0%. The “Velvetleaf plant response rating” value [4, 8] was 0, the “Velvetleaf plant response rating” value [4, 9] was 0 and the “Oat, Wild plant response rating” value (wild oat (Avena fatua); [7]) was 0. For the same molecule, the “Oat, Wild plant response rating” value (wild oat (Avena fatua); [10]) was 30, the pest or weed control at 31 g/ha (wild oat (Avena fatua); [11]) was 85% and the pest or weed control at 62 g/ha (wild oat (Avena fatua); [12]) was 98%. The pest or weed control at 31 g/ha (wild oat (Avena fatua); [13]) was 40%, the pest or weed control at 62 g/ha (wild oat (Avena fatua); [14]) was 50% and the “Oat, Wild plant response rating” value (wild oat (Avena fatua); [8]) was 0. For the same molecule, the “Oat, Wild plant response rating” value (wild oat (Avena fatua); [9]) was 0, the “Cupgrass, Woolly plant response rating” value [5, 7] was 20 and the pest or weed control at 16 g/ha ([5]; Eriochloa villosa, post-emergence, Postemergence, 16 g ai/ha, scale 0 to 100, read-out: Plant response rating, Cupgrass, Woolly) was 65%. For the same molecule, the pest or weed control at 31 g/ha ([5]; Eriochloa villosa, post-emergence, Postemergence, scale 0 to 100, read-out: Plant response rating, Cupgrass, Woolly) was 65%, the pest or weed control at 62 g/ha ([5]; Eriochloa villosa, post-emergence, Postemergence, scale 0 to 100, 0 no effect, read-out: Plant response rating, Cupgrass, Woolly) was 75% and the pest or weed control at 31 g/ha ([5]; Eriochloa villosa, pre-emergence, Preemergence, scale 0 to 100 (0 no effect, 100 complete control), read-out: Plant response rating, Cupgrass, Woolly) was 65%. For the same molecule, the pest or weed control at 62 g/ha ([5]; Eriochloa villosa, pre-emergence, Preemergence, 0 to 100 scale, 0 no effect, read-out: Plant response rating, Cupgrass, Woolly) was 75%, the “Cupgrass, Woolly plant response rating” value [5, 8] was 0 and the “Cupgrass, Woolly plant response rating” value [5, 9] was 0. The pest or weed control at 62 g/ha ([6]; 62 g ai/ha) was 0%, the pest or weed control at 250 g/ha ([6]; 250 g ai/ha) was 0% and the plant injury at 62 g/ha (rice (Oryza sativa); 62 g ai/ha) was 0%. For the same molecule, the plant injury at 250 g/ha (rice (Oryza sativa); 250 g ai/ha) was 0%.
